Each block holds one molecule with its values, some of them ahead of it.
Assays:
[1] = test system: termination codon (UGA) in renilla luciferase ORF; assay: readthrough assay using a dual luciferase reporter construct; assay type: cell-based
Source text: FIG. 3 depicts the results of a readthrough assay using a dual luciferase reporter construct.
This example describes a readthrough assay that uses a dual lucifierase reporter construct. The firefly luciferase ORF is wild-type while translation of the renilla luciferase ORF is prevented by the presence of a termination codon (UGA). Cells were either untreated or treated with siRNAs directed against RRP4, an essential component of the exosome.

[2] = test system: cultured chicken hepatocellular carcinoma cells; assay: ratio of truncated to full-length GHR transcripts after translational arrest; assay type: cell-based; details: after treatment with translational inhibitor
nonstop-PGK1 transcripts = assay: nonstop-PGK1 mRNA stability (half-life by Northern blot) in yeast; assay type: cell-based, Saccharomyces cerevisiae; details: treatment with translation inhibitor
Source text: In order to determine whether the presence of translational termination influences mRNA stability, we assayed PGK1 tran-scripts in Saccharomyces cerevisiae derived from the following constructs (3): wild-type PGK1 (WT-PGK1), a nonsense form of PGK1 harboring a PTC at codon 22 [PTC(22)-PGK1], and nonstop-PGK1 that was created by removing the bona fide termination codon and all in-frame termination codons in the 3′ UTR (untranslated region) from the WT-PGK1 transcript. Nonstop-PGK1 transcripts were as labile as their nonsense-containing counterparts. At least three trans-acting factors (Upf1p, Upf2p, and Upf3p) are essential for nonsense-mediated mRNA decay (NMD) in S. cerevisiae (4, 5). Remarkably, nonstop transcripts were not stabilized in strains lacking Upf1p, distinguishing the pathway of decay from NMD.
Additional experiments were performed to assess the role of translation in nonstop decay. […] It has been shown that translation into the 3′ UTR of selected transcripts can displace bound trans-factors that are positive determinants of message stability (13, 14). […]
(§1) 27. […] Half-lives were determined by plotting the percent of mRNA remaining versus time on a semi-log plot. All half-lives were determined at 25° C. except for the ccr4Δ (performed at 30° C.) and dcp1-2 [performed after shift to the nonpermissive temp (37° C.) for 1 hour] experiments.

[3] = test system: WT-PGK1 and Ter-poly(A)-PGK1 transcripts; assay: half-lives of WT-PGK1 and Ter-poly(A)-PGK1 transcripts in yeast treated with paromomycin; assay type: cell-based, Saccharomyces cerevisiae; details: 100 μg/ml CHX added during the last hour before half-life determination
Procedure: FIG. 2 depicts graphs of the half-lives of WT-PGK1 and Ter-poly(A)-PGK1 transcripts in wild-type-(WT) and SK17-deleted (ski7A) yeast strains treated with the indicated dose of paromomycin (mg/ml) (PM) for 20 hours. For cycloheximide (CHX) experiments, yeast were treated identically except 100 μg/ml of CHX was added during the last hour before half-life determination.
Any event that diminishes translational fidelity and promotes readthrough of termination codons could plausibly result in the generation of substrates for nonstop decay. In view of recent attempts to treat genetic disorders resulting from PTCs with long-term and high-dose aminoglycoside regimens, this may achieve medical significance. As a proof-of-concept experiment, we examined the performance of transcripts with one [Ter-poly(A)-PGK1] or multiple (WT-PGK1) in-frame termination codons (including those in the 3′ UTR) in yeast strains after treatment with paromomycin, which induces ribosomal readthrough.
as §1, with “27. All PGK1 minigene constructs were under the control of the GAL1 upstream activation sequence (UAS).” for “27.”

- readthrough, renilla:firefly ratio ([1]; exosome function inhibited by siRNAs directed against RRP4, increasing concentrations): dose-dependent increase in readthrough
Molecule: gentamycin
- readthrough, renilla:firefly ratio ([1]; intact exosome function (control RNAi), increasing concentrations): do not result in a significant increase in readthrough

Molecule: CC[C@H]1CN2CCc3cc(OC)c(OC)cc3[C@@H]2C[C@@H]1C[C@H]1NCCc2cc(OC)c(OC)cc21 [emetine]
- ratio of truncated-to-full-length GHR transcripts [2]: dramatically increased

Molecule: C[C@@H]1C[C@@H]([C@H](O)CC2CC(=O)NC(=O)C2)C(=O)[C@@H](C)C1 [cycloheximide]
- stability of nonstop-PGK1 transcripts (nonstop-PGK1 transcripts): substantially increased the stability
- effect on paromomycin-induced decrease in stability of Ter-poly(A)-PGK1 and WT-PGK1 transcripts [3]: could be reversed

Source: patent US20040072201A1, “Methods of identifying compounds that inhibit nonstop degradation of mRNA” (priority 2002, published 2004)
